# Where a SMILES comes first, the peptide text is derived from it.
# Experiments:
# CNV lesions = settings: mouse, in vivo, ip
# Description: One week after laser induction, mice with choroidal neovascularization were randomly divided into two groups (10 mice per group), and injected intraperitoneally with 5 mg of FITC-JP1 and 0.99 mg of FITC 100 uL (both groups were injected with equal amounts of FITC intraperitoneally), respectively. The intensity of FITC in the living retina was determined using the FFA method (n=5/group). To evaluate the accumulation of FITC in CNV lesions, mice were euthanized at 1, 3, 8, 24, and 48 h after intraperitoneal injection of FITC-JP1 or FITC, respectively. Then, choroidal spreads were observed by fluorescence microscopy.
# [1] = Solubility of the synthesized peptides; format: physicochemical
# Description: Peptide JP1 and others were synthesized by GL Biochem (Shanghai) Ltd. and Hybio Pharmaceutical Co., Ltd. (Shenzhen, China, under standard GMP conditions. Purity >98%, water-soluble. Freeze dried powder is stored for a long time at −20° C.
# [2] = test system: streptozotocin (STZ)-induced diabetes mouse model; test: Streptozotocin-induced diabetes mouse model: retinal vascular density and leakage; format: in vivo; settings: STZ diabetic mice, intraocular injection once a week, 4 times; compared to normal mice of the same age
# Description: C57BL/6 mice (male, 3-5 weeks old) were administered with intraperitoneal injection of streptozotocin (STZ) (7.5 mg/mL; S-0130, Sigma Aldrich, St. Louis, MO, USA), fresh dissolved Na Citrate (CAM) buffer (pH: 4.5-4.7; S4641, Sigma) at a dose of 50 mg/kg, once daily, for 5 consecutive days. After one week, blood sugar ≥300 mg/dL was regarded as the onset of diabetes. Only mice with sustained high sugar for 3 weeks were used for subsequent experiments. […] The blood glucose of mice was measured every month to confirm the status of diabetes. Two months after the onset of diabetes, the mice were randomly divided into four groups with 10 mice in each group. […]
# After the mice were anesthetized, 1 mL of PBS containing 40 mg/mL fluorescein isothiocyanate-glucan was perfused into the left ventricle (average mol wt: 2×10^6, Sigma, St Louis, MO, USA). […] Stretched preparation was made, and observe the flat bracket using a fluorescence microscope and take photos. The vascular density of capillary networks was analyzed using Angio Tool image analysis software. […]
# Evans blue (45 mg/kg) was injected through the tail vein of mice for more than 10 s. […] Plasma Evans blue concentration was determined by taking 100 uL of blood. […]
solubility [1],Molecule,accumulation of FITC at CNV lesions (retinal choroidal plain films) (CNV lesions),retinal vascular density [2]
water-soluble,N=C(N)NCCC[C@H](NC(=O)[C@H](Cc1ccccc1)NC(=O)[C@H](CCCNC(=N)N)NC(=O)[C@H](CC(=O)O)NC(=O)[C@H](COP(=O)(O)O)NC(=O)CNC(=O)[C@@H]1CCCN1C(=O)[C@@H](N)Cc1ccccc1)C(=O)NCC(=O)N[C@@H](CC(=O)O)C(=O)O [JP1] (HELM PEPTIDE1{F.P.G.[O=C([C@H](COP(=O)(O)O)N[*:1])[*:2]].D.R.F.R.G.D}$$$$V2.0; N-terminus and C-terminus assumed),enhanced the accumulation of FITC at CNV lesions,–
–,"Ranibizumab (antibody, chains of the INN, looked up, V domains shown, Fab, anti-VEGF antibody drug used as positive control) VH: EVQLVESGGGLVQPGGSLRLSCAASGYDFTHYGMNWVRQAPGKGLEWVGWINTYTGEPTYAADFKRRFTFSLDTSKSTAYLQMNSLRAEDTAVYYCAKYPYYYGTSHWYFDVWGQGTLVTVSS VL: DIQLTQSPSSLSASVGDRVTITCSASQDISNYLNWYQQKPGKAPKVLIYFTSSLHSGVPSRFSGSGSGTDFTLTISSLQPEDFATYYCQQYSTVPWTFGQGTKVEIK",–,no significant decrease in retinal vascular density
